Assay results published in US20100256207A1, “AMORPHOUS OLMESARTAN MEDOXOMIL” (priority 2007, published 2010).
Entries after “also recorded” stand apart in the source; their conditions may differ.

Tests used:
[1] = cited from earlier work
[2] = type: physicochemical
Experimental: The powder obtained by the process according to the invention as described above and in the following examples was also subjected to Differential Scanning Calorimetry (DSC). It will be apparent to one skilled in the art that the exothermic event at 100-140° C. is a heating-induced recrystallisation of the amorphous form to the crystalline prior art form. This is confirmed by XRPD data and confirms that the chemical entity of the initial amorphous material does represent olmesartan medoxomil. Further, it also confirms that the amorphous olmesartan medoxomil according to the above described embodiments of the invention is sufficiently kinetically stable or metastable, as no conversion to other polymorphic forms occurs below 100° C.
The DSC thermal analysis data was obtained using a Mettler-Toledo DSC821e apparatus under the following parameters:
(§1) Temperature profile: 25-300° C.@5° C./min
(§2) Nitrogen purge gas, 50 ml/min
(§3) Aluminium pan, […], pierced prior to scan

[3] = Thermo-Gravimetric Analysis (TGA): water content / hygroscopicity; type: physicochemical
Experimental: The powder obtained by the process according to the invention as described above and in the following examples was also subjected to Thermo-Gravimetric Analysis (TGA).
The water content was determined by weight loss in the TGA data at 25-105° C.
The TGA analysis data was obtained using a Mettler-Toledo TGA851e apparatus under the following parameters:
as §1, §2, §3

kinetic stability: temperature below which no conversion to other polymorphic forms occurs [2]	exothermic event: heating-induced recrystallisation of the amorphous form to the crystalline prior art form ([2]; DSC, 25-300° C. at 5° C./min, nitrogen purge, confirmed by XRPD)	water content ([3]; weight loss in the TGA data at 25-105° C.)	Structure (SMILES)	aqueous solubility [1]	hygroscopicity [3]
			CCCc1nc(C(C)(C)O)c(C(=O)OCc2oc(=O)oc2C)n1Cc1ccc(-c2ccccc2-c2nnn[nH]2)cc1 [Olmesartan medoxomil, 2,3-dihydroxy-2-butenyl 4-(1-hydroxy-1-methylethyl)-2-propyl-1-[p-(o-tetrazol-5-yl-phenyl)benzyl]imidazole-5-carboxylate cyclic 2,3-carbonate]	very low	
≥ 100 °C	100-140 °C	less than 2 % by weight	CCCc1nc(C(C)(C)O)c(C(=O)OCc2oc(=O)oc2C)n1Cc1ccc(-c2ccccc2-c2nnn[nH]2)cc1 [amorphous olmesartan medoxomil, 2,3-dihydroxy-2-butenyl 4-(1-hydroxy-1-methylethyl)-2-propyl-1-[p-(o-tetrazol-5-yl-phenyl)benzyl]imidazole-5-carboxylate cyclic 2,3-carbonate]		surprisingly low hygroscopicity; also recorded: substantially non-hygroscopic
